# Reference: patent US7935815B2, “Imidazoyl pyridine compounds and salts thereof” (Eisai R&D Management Co., Ltd., priority 2007, dated 2011)
# pIC50: −log10 of the molar value.
# Test system: Aβ42 production
# Experiment: Quantification of Aβ peptide in culture of neurons from rat fetus brain (Aβ ELISA)
# Assay type: cell-based
# Settings: Rattus norvegicus, Neuron, 72 h, rat primary neuronal culture (embryonic day 18 Wistar rat cerebral cortex); cultured three days after addition of compound; Aβx-42 ELISA of the medium; read-out: Aβ42 production reducing effect IC50
# Outline: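 Primary cortical neurons from E18 Wistar rat embryos were cultured 4 days on poly-lysine, then treated with compound in Neurobasal/B27 without 2-mercaptoethanol (final DMSO ≤1%) for 3 days. Conditioned medium was assayed undiluted by ELISA for Aβx-42, against DMSO-only controls.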
row,SMILES,pIC50
1,"COc1nc(/C=C/c2nc3n(n2)CCC3c2ccc(F)c(F)c2)ccc1-n1cnc(C)c1 (stereo not shown) [Example 380, 7-(3,4-difluorophenyl)-2-{(E)-2-[6-methoxy-5-(4-methyl-1H-imidazol-1-yl)pyridin-2-yl]vinyl}-6,7-dihydro-5H-pyrrolo[1,2-b][1,2,4]triazole]",7.54
2,"COc1cc(/C=C/c2nc3n(n2)CCCCN3c2ccc(F)cc2)ccc1-n1cnc(C)c1 [Example 165, 8-(4-fluorophenyl)-2-{(E)-2-[3-methoxy-4-(4-methyl-1H-imidazol-1-yl)phenyl]vinyl}-5,6,7,8-tetrahydro-4H-1,3,3a,8-tetraazaazulene]",6.94
3,"COc1nc(/C=C/c2nc3n(n2)CCCC3c2ccccc2F)ccc1-n1cnc(C)c1 (single isomer, unassigned; (-)) [Example 327, (−)-8-(2-fluorophenyl)-2-{(E)-2-[6-methoxy-5-(4-methyl-1H-imidazol-1-yl)pyridin-2-yl]vinyl}-5,6,7,8-tetrahydro-[1,2,4]triazolo[1,5-a]pyridine]",7.70
4,"Cc1cn(-c2ccc(/C=C/c3nc4n(n3)CCCC4c3ccccc3C(F)(F)F)nc2OCC(F)F)cn1 (single isomer, unassigned; (-)) [Example 354, (−)-2-{(E)-2-[5-(4-methyl-1H-imidazol-1-yl)-6-(2,2-difluoroethoxy)pyridin-2-yl]vinyl}-8-(2-trifluoromethylphenyl)-5,6,7,8-tetrahydro-[1,2,4]triazolo[1,5-a]pyridine]",7.43
5,"COc1cc(/C=C/c2nc3n(n2)C[C@@H](C)C[C@@H]3c2ccc(F)cc2)ccc1-n1cnc(C)c1 [Example 99, (6S,8R)-8-(4-fluorophenyl)-2-{(E)-2-[3-methoxy-4-(4-methyl-1H-imidazol-1-yl)phenyl]vinyl}-6-methyl-5,6,7,8-tetrahydro-[1,2,4]triazolo[1,5-a]pyridine]",7.70
6,"COc1cc(/C=C/c2nc3n(n2)CCCC3(O)c2cc(F)cc(F)c2)ccc1-n1cnc(C)c1 (single isomer, unassigned; (+)) [Example 80, (+)-8-(3,5-difluorophenyl)-2-{(E)-2-[3-methoxy-4-(4-methyl-1H-imidazol-1-yl)phenyl]vinyl}-5,6,7,8-tetrahydro[1,2,4]triazolo[1,5-a]pyridin-8-ol]",7.54
7,"COc1nc(/C=C/c2nc3n(n2)CCCC3c2cc(F)ccc2C(F)(F)F)ccc1-n1cnc(C)c1 (single isomer, unassigned; (-)) [Example 329, (−)-8-(5-fluoro-2-trifluoromethylphenyl)-2-{(E)-2-[6-methoxy-5-(4-methyl-1H-imidazol-1-yl)pyridin-2-yl]vinyl}-5,6,7,8-tetrahydro-[1,2,4]triazolo[1,5-a]pyridine]",7.77
8,"COc1nc(/C=C/c2nc3n(n2)CCC[C@H]3c2ccc(F)cc2Cl)ccc1-n1cnc(C)c1 (single isomer, unassigned) [Example 187, (−)-8-(2-chloro-4-fluorophenyl)-2-{(E)-2-[6-methoxy-5-(4-methyl-1H-imidazol-1-yl)pyridin-2-yl]vinyl}-5,6,7,8-tetrahydro-[1,2,4]triazolo[1,5-a]pyridine]",7.42
9,"COc1cc(/C=C/c2nc3n(n2)CCCC3c2cccc(F)c2)ccc1-n1cnc(C)c1 (single isomer, unassigned; (-)) [Example 2, (−)-8-(3-fluorophenyl)-2-{(E)-2-[3-methoxy-4-(4-methyl-1H-imidazol-1-yl)phenyl]vinyl}-5,6,7,8-tetrahydro[1,2,4]triazolo[1,5-a]pyridine]",7.55
10,"COc1nc(/C=C/c2nc3n(n2)CCC(C)N3c2ccccc2C(F)(F)F)ccc1-n1cnc(C)c1 (stereo not shown) [Example 373, 2-{(E)-2-[6-methoxy-5-(4-methyl-1H-imidazol-1-yl)pyridin-2-yl]vinyl}-5-methyl-4-(2-trifluoromethylphenyl)-4,5,6,7-tetrahydro-[1,2,4]triazolo[1,5-a]pyrimidine]",7.54
11,"COc1nc(/C=C/c2nc3n(n2)CCCC3c2c(F)cccc2C(F)(F)F)ccc1-n1cnc(C)c1 (single isomer, unassigned; (-)) [Example 331, (−)-8-(6-fluoro-2-trifluoromethylphenyl)-2-{(E)-2-[6-methoxy-5-(4-methyl-1H-imidazol-1-yl)pyridin-2-yl]vinyl}-5,6,7,8-tetrahydro-[1,2,4]triazolo[1,5-a]pyridine]",7.66
12,"COc1cc(/C=C/c2nc3n(n2)CCCC3c2ccccc2C(F)(F)F)ccc1-n1cnc(C)c1 (single isomer, unassigned; (-)) [Example 311, (−)-2-{(E)-2-[3-methoxy-4-(4-methyl-1H-imidazol-1-yl)phenyl]vinyl}-8-(2-trifluoromethylphenyl)-5,6,7,8-tetrahydro-[1,2,4]triazolo[1,5-a]pyridine]",7.96
13,"COc1nc(/C=C/c2nc3n(n2)CCC[C@H]3c2cccc(F)c2F)ccc1-n1cnc(C)c1 (single isomer, unassigned) [Example 280, (−)-8-(2,3-difluorophenyl)-2-{(E)-2-[6-methoxy-5-(4-methyl-1H-imidazol-1-yl)pyridin-2-yl]vinyl}-5,6,7,8-tetrahydro-[1,2,4]triazolo[1,5-a]pyridine]",7.74
14,"COc1cc(/C=C/c2nc3n(n2)CCC[C@]3(O)c2cc(F)c(F)c(F)c2)c(F)cc1-n1cnc(C)c1 (single isomer, unassigned) [Example 96, (−)-2-{(E)-2-[2-fluoro-5-methoxy-4-(4-methyl-1H-imidazol-1-yl)phenyl]vinyl}-8-(3,4,5-trifluorophenyl)-5,6,7,8-tetrahydro[1,2,4]triazolo[1,5-a]pyridin-8-ol]",7.20
15,"COc1nc(/C=C/c2nc3n(n2)CCC[C@H]3c2ccccc2C(F)(F)F)ccc1-n1cnc(C)c1 (single isomer, unassigned) [Example 195]",7.77
16,"COc1cc(/C=C/c2nc3n(n2)CC[C@H](O)[C@@H]3c2cc(F)c(F)c(F)c2)ccc1-n1cnc(C)c1 [Example 106, (7S,8R)-2-{(E)-2-[3-methoxy-4-(4-methyl-1H-imidazol-1-yl)phenyl]vinyl}-8-(3,4,5-trifluorophenyl)-5,6,7,8-tetrahydro-[1,2,4]triazolo[1,5-a]pyridin-7-ol]",7.41
17,"COc1cc(/C=C/c2nc3n(n2)CCC[C@H]3C2CCCCC2)ccc1-n1cnc(C)c1 (single isomer, unassigned) [Example 114, (−)-8-cyclohexyl-2-{(E)-2-[3-methoxy-4-(4-methyl-1H-imidazol-1-yl)phenyl]vinyl}-5,6,7,8-tetrahydro[1,2,4]triazolo[1,5-a]pyridine]",7.29

# Same assay, conditions: rat primary neuronal culture (embryonic day 18 Wistar rat cerebral cortex); cultured three days after addition of compound; Aβx-42 ELISA of the medium; read-out: Aβ42 production reducing effect IC50
row,SMILES,pIC50
1,"COc1nc(/C=C/c2nc3n(n2)C(C)CCC3c2ccccc2C(F)(F)F)ccc1-n1cnc(C)c1 (stereo not shown) [Example 362, 2-{(E)-2-[6-methoxy-5-(4-methyl-1H-imidazol-1-yl)pyridin-2-yl]vinyl}-5-methyl-8-(2-trifluoromethylphenyl)-5,6,7,8-tetrahydro-[1,2,4]triazolo[1,5-a]pyridine]",8.05
2,"COc1nc(/C=C/c2nc3n(n2)CCCC3c2cc(F)cc(F)c2)ccc1-n1cnc(C)c1 (stereo not shown) [Example 365, 8-(3,5-difluorophenyl)-2-{(E)-2-[6-methoxy-5-(4-methyl-1H-imidazol-1-yl)pyridin-2-yl]vinyl}-5,6,7,8-tetrahydro-[1,2,4]triazolo[1,5-a]pyridine]",7.68
